Test results: patent US11203613B2, “Peptidomimetic proteasome inhibitors” (CORNELL UNIVERSITY, priority 2017, dated 2021)
Values joined by “and” are separate entries in the source; they are usually repeats but may differ in a detail not shown here. Equal entries are not always repeated. Where two headings read alike, the source gives them in different places.

Target: Human Constitutive (Hu C-20S) β5 Active Subunit (Homo sapiens, UniProt P28074)
Assay: IC50 determination, human constitutive 20S proteasome β5c (suc-LLVY-AMC hydrolysis)
Format: biochemical
[1] = Table 3, IC50 against human constitutive β5 active subunit, read-out: Hu-C20S β5

SMILES | IC50 [1] [µM] | IC50 (Table 2, several values in a cell are repeat determinations, read-out: Hu c-20S IC50)
Cc1cc(C(=O)N[C@@H](CC(=O)N2CCCC[C@@H]2C)C(=O)N[C@@H](C)c2ncc(-c3ccc(F)cc3F)[nH]2)no1 [CEN-94, N—((S)-1-(((S)-1-(5-(2,4-Difluorophenyl)-1H-imidazol-2-yl)ethyl)amino)-4-((S)-2-methylpiperidin-1-yl)-1,4-dioxobutan-2-yl)-5-methylisoxazole-3-carboxamide] | 5.5 | 
CC(C)CCC(=O)N[C@@H](CC(=O)N(C)C(C)C)C(=O)N[C@@H](C)c1ncc(-c2ccc(F)cc2F)[nH]1 [CEN-78, (S)—N1-((S)-1-(5-(2,4-Difluorophenyl)-1H-imidazol-2-yl)ethyl)-N4-isopropyl-N4-methyl-2-(4-methylpentanamido)succinamide] | 14.9 | 
CC[C@H]1CCCCN1C(=O)C[C@H](NC(=O)C1CC2(CCC2)C1)C(=O)N[C@@H](C)c1nc2c(F)cccc2[nH]1 [CEN-17, N—((S)-4-((S)-2-Ethylpiperidin-1-yl)-1-(((S)-1-(4-fluoro-1H-benzo[d]imidazol-2-yl)ethyl)amino)-1,4-dioxobutan-2-yl)spiro[3.3]heptane-2-carboxamide] | 13.4 | 
CC(C)C1CC1C(=O)N[C@@H](CC(=O)N1CCCC[C@@H]1C)C(=O)N[C@@H](C)c1nc2c(F)cccc2[nH]1 (stereo partly drawn) [CEN-40, N—((S)-1-(((S)-1-(4-Fluoro-1H-benzo[d]Imidazol-2-yl)ethyl)amino)-4-((S)-2-methylpiperidin-1-yl)-1,4-dioxobutan-2-yl)-2-isopropylcyclopropane-1-carboxamide] | 2.7 | 
CC[C@H]1CCCCN1C(=O)C[C@H](NC(=O)N1CCOCC1)C(=O)N[C@@H](C)c1nc2c(F)cccc2[nH]1 [CEN-14, N—((S)-4-((S)-2-Ethylpiperidin-1-yl)-1-(((S)-1-(4-fluoro-1H-benzo[d]imidazol-2-yl)ethyl)amino)-1,4-dioxobutan-2-yl)morpholine-4-carboxamide] | 4.5 | 
CC[C@H]1CCCCN1C(=O)C[C@H](NC(=O)CCN(C)C)C(=O)N[C@@H](C)c1nc2c(F)cccc2[nH]1 [CEN-4, (S)-2-(3-(Dimethylamino)propanamido)-4-((S)-2-ethylpiperidin-1-yl)-N—((S)-1-(4-fluoro-1H-benzo[d]imidazol-2-yl)ethyl)-4-oxobutanamide] | 6.4 | 
C[C@H](NC(=O)[C@H](CC(=O)N1CCCC[C@@H]1C)NC(=O)C1CC(C)(C)C1)c1nc2c(F)cccc2[nH]1 [CEN-39, N—((S)-1-(((S)-1-(4-Fluoro-1H-benzo[d]Imidazol-2-yl)ethyl)amino)-4-((S)-2-methylpiperidin-1-yl)-1,4-dioxobutan-2-yl)-3,3-dimethylcyclobutane-1-carboxamide] | 7.6 | 
CC[C@H]1CCCCN1C(=O)C[C@H](NC(=O)CCC(C)(C)C)C(=O)N[C@@H](C)c1nc2ccccc2[nH]1 [CF-503217] |  | 6.85 µM and 8.99 µM
C[C@H](NC(=O)[C@H](CC(=O)N1CCC[C@@H]1c1ccccc1)NC(=O)CCCC(F)(F)F)c1nc2ccccc2s1 [CEN-67, N—((S)-1-(((S)-1-(Benzo[d]thiazol-2-yl)ethyl)amino)-1,4-dioxo-4-((R)-2-phenylpyrrolidin-1-yl)butan-2-yl)-5,5,5-trifluoropentanamide] | > 100 | 
CC[C@H]1CCCCN1C(=O)C[C@H](NC(=O)OCc1ccccc1)C(=O)N[C@@H](C)c1nc2c(F)cccc2[nH]1 [CEN-23, Benzyl ((S)-4-((S)-2-Ethylpiperidin-1-yl)-1-(((S)-1-(4-fluoro-1H-benzo[d]imidazol-2-yl)ethyl)amino)-1,4-dioxobutan-2-yl)carbamate] | 5.8 | 
C[C@H](NC(=O)[C@@H](N)CC(=O)N1CCCC[C@@H]1C)c1ncc(-c2ccc(F)cc2F)[nH]1 [CEN-76, (S)-2-Amino-N—((S)-1-(5-(2,4-difluorophenyl)-1H-imidazol-2-yl)ethyl)-4-((S)-2-methylpiperidin-1-yl)-4-oxobutanamide] | 14.2 | 
CC(C)CCC(=O)N[C@@H](CC(=O)N1CCC[C@@H]1c1ccccc1)C(=O)N[C@@H](C)c1nc2ccccc2[nH]1 [CEN-48, N—((S)-1-(((S)-1-(1H-Benzo[d]imidazol-2-yl)ethyl)amino)-1,4-dioxo-4-((R)-2-phenylpyrrolidin-1-yl)butan-2-yl)-4-methylpentanamide] | 50 | 
C[C@H](NC(=O)[C@H](CC(=O)N1CCC[C@@H]1c1ccccc1)NC(=O)CC1CC1)c1ncc(Cc2ccccc2)[nH]1 [CEN-121, (S)—N—((S)-1-(5-Benzyl-1H-imidazol-2-yl)ethyl)-2-(2-cyclopropylacetamido)-4-oxo-4-((R)-2-phenylpyrrolidin-1-yl)butanamide] | 10.6 | 
C[C@H](NC(=O)[C@@H](N)CC(=O)N1CCC[C@@H]1c1ccccc1)c1ncc(-c2ccccc2F)[nH]1 [CEN-74, (S)-2-Amino-N—((S)-1-(5-(2-fluorophenyl)-1H-imidazol-2-yl)ethyl)-4-oxo-4-((R)-2-phenylpyrrolidin-1-yl)butanamide] | 94 | 
Cc1cc(C(=O)N[C@@H](CC(=O)N2CCCC[C@@H]2C)C(=O)NC(C)c2nc3ccccc3[nH]2)no1 (stereo partly drawn) [CEN-35, N-((2S)-1-((1-(1H-Benzo[d]imidazol-2-yl)ethyl)amino)-4-((S)-2-methylpiperidin-1-yl)-1,4-dioxobutan-2-yl)-5-methylisoxazole-3-carboxamide] | 19.6 | 
C[C@H](NC(=O)[C@H](CC(=O)N1CCCC[C@@H]1C)NC(=O)Cc1ccccc1)c1ncc(-c2ccc(F)cc2F)[nH]1 [CEN-102, (S)—N—((S)-1-(5-(2,4-Difluorophenyl)-1H-imidazol-2-yl)ethyl)-4-((S)-2-methylpiperidin-1-yl)-4-oxo-2-(2-phenylacetamido)butanamide] | 10.2 | 
CC(C)CCC(=O)N[C@@H](CC(=O)N1CCCC1)C(=O)N[C@@H](C)c1ncc(-c2ccc(F)cc2F)[nH]1 [CEN-77, N—((S)-1-(((S)-1-(5-(2,4-Difluorophenyl)-1H-imidazol-2-yl)ethyl)amino)-1,4-dioxo-4-(pyrrolidin-1-yl)butan-2-yl)-4-methylpentanamide] | 10.4 | 
C[C@H](NC(=O)[C@H](CC(=O)N1CCCC[C@@H]1C)NC(=O)OCc1ccccc1)c1nc2c(F)cccc2[nH]1 [CEN-50, Benzyl ((S)-1-(((S)-1-(4-Fluoro-1H-benzo[d]Imidazol-2-yl)ethyl)amino)-4-((S)-2-methylpiperidin-1-yl)-1,4-dioxobutan-2-yl)carbamate] | 14.8 | 
Cc1cc(C(=O)N[C@@H](CC(=O)N2CCC[C@@H]2c2ccccc2)C(=O)N[C@@H](C)c2ncc(-c3ccccc3F)[nH]2)no1 [CEN-75, N—((S)-1-(((S)-1-(5-(2-Fluorophenyl)-1H-imidazol-2-yl)ethyl)amino)-1,4-dioxo-4-((R)-2-phenylpyrrolidin-1-yl)butan-2-yl)-5-methylisoxazole-3-carboxamide] | > 100 | 
C[C@H](NC(=O)[C@H](CC(=O)N1CCCC[C@@H]1C)NC(=O)CCC(C)(C)C)c1ncc(-c2ccc(F)cc2F)[nH]1 [CEN-99, N—((S)-1-(((S)-1-(5-(2,4-Difluorophenyl)-1H-imidazol-2-yl)ethyl)amino)-4-((S)-2-methylpiperidin-1-yl)-1,4-dioxobutan-2-yl)-4,4-dimethylpentanamide] | 8.5 | 
CC(C)CCC(=O)N[C@@H](CC(=O)N1CCCCCC1)C(=O)N[C@@H](C)c1ncc(-c2ccc(F)cc2F)[nH]1 [CEN-90, N—((S)-4-(Azepan-1-yl)-1-(((S)-1-(5-(2,4-difluorophenyl)-1H-imidazol-2-yl)ethyl)amino)-1,4-dioxobutan-2-yl)-4-methylpentanamide] | 10.2 | 
CC(C)CCS(=O)(=O)N[C@@H](CC(=O)N1CCCC[C@@H]1C)C(=O)N[C@@H](C)c1ncc(-c2ccc(F)cc2F)[nH]1 [CEN-114, (S)—N—((S)-1-(5-(2,4-Difluorophenyl)-1H-imidazol-2-yl)ethyl)-2-((3-methylbutyl)sulfonamido)-4-((S)-2-methylpiperidin-1-yl)-4-oxobutanamide] | 9.7 | 
C[C@H](NC(=O)[C@H](CC(=O)N1CCCC[C@@H]1C)NC(=O)CC1CCOCC1)c1ncc(Cc2ccccc2)[nH]1 [CEN-122, (S)—N—((S)-1-(5-Benzyl-1H-imidazol-2-yl)ethyl)-4-((S)-2-methylpiperidin-1-yl)-4-oxo-2-(2-(tetrahydro-2H-pyran-4-yl)acetamido)butanamide] | 13.5 | 
CC(C)CS(=O)(=O)N[C@@H](CC(=O)N1CCCC[C@@H]1C)C(=O)N[C@@H](C)c1ncc(-c2ccc(F)cc2F)[nH]1 [CEN-104, (S)—N—((S)-1-(5-(2,4-Difluorophenyl)-1H-imidazol-2-yl)ethyl)-4-((S)-2-methylpiperidin-1-yl)-2-((2-methylpropyl)sulfonamido)-4-oxobutanamide] | 4.9 | 
CCN(CC)C(=O)C[C@H](NC(=O)CCC(C)C)C(=O)N[C@@H](C)c1ncc(-c2ccc(F)cc2F)[nH]1 [CEN-79, (S)—N1-((S)-1-(5-(2,4-Difluorophenyl)-1H-imidazol-2-yl)ethyl)-N4,N4-diethyl-2-(4-methylpentanamido)succinamide] | 7.3 | 
CC[C@H]1CCCCN1C(=O)C[C@H](Nc1nc2ccccc2o1)C(=O)N[C@@H](C)c1nc2c(F)cccc2[nH]1 [CEN-16, (S)-2-(Benzo[d]oxazol-2-ylamino)-4-((S)-2-ethylpiperidin-1-yl)-N—((S)-1-(4-fluoro-1H-benzo[d]imidazol-2-yl)ethyl)-4-oxobutanamide] | 4.5 | 
C[C@H](NC(=O)[C@H](CC(=O)N1CCCC[C@@H]1C)NC(=O)CCC1CC1)c1ncc(-c2ccc(F)cc2F)[nH]1 [CEN-87, (S)-2-(3-Cyclopropylpropanamido)-N—((S)-1-(5-(2,4-difluorophenyl)-1H-imidazol-2-yl)ethyl)-4-((S)-2-methylpiperidin-1-yl)-4-oxobutanamide] | 11.7 | 
C[C@H](NC(=O)[C@H](CC(=O)N1CCCC[C@@H]1C)NC(=O)c1cn(C)cn1)c1ncc(-c2ccc(F)cc2F)[nH]1 [CEN-93, N—((S)-1-(((S)-1-(5-(2,4-Difluorophenyl)-1H-imidazol-2-yl)ethyl)amino)-4-((S)-2-methylpiperidin-1-yl)-1,4-dioxobutan-2-yl)-1-methyl-1H-imidazole-4-carboxamide] | 10.9 | 
